The assay addresses T1, 5-HT3 receptor (Cavia porcellus, UniProt O70212).
T1 construct: from tissue; host or cells: guinea pig isolated ileum (terminal 15 cm)
T1 sequence (O70212 20-490): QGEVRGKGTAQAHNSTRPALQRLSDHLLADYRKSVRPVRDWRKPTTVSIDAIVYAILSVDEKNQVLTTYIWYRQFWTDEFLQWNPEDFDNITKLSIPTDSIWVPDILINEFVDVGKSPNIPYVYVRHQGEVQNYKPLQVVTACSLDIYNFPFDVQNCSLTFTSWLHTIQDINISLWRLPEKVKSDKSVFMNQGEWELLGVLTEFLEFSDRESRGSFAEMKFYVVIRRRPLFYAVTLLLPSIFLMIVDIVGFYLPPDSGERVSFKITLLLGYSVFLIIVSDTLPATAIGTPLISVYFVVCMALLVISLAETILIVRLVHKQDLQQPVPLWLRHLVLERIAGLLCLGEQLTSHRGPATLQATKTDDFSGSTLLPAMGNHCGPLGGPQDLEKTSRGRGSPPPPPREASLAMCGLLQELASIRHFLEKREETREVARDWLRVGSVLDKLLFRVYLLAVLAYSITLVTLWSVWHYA
Nature of the assay: 5HT3-antagonist activity: inhibition of 5-HT-induced contractions of isolated guinea pig ileum in the presence of methysergide. Type of assay: cell-based. On the procedure: Compounds of formula (I) were tested for their 5HT3 -antagonist activity using the following method:
5-HT produces contractions of the guinea pig ileum via 2 different receptors. 1) direct contractions via 5-HT2 receptors on the muscle, 2) indirect contractions via 5-HT3 recaptots on intrinsic gut neurones, producing acetylcholine release. By administering 5-HT to lengths of ileum in the presence of methysergide (to block 5-HT2 receptors) you can assay 5-HT3 receptor activity.
Guinea pigs were killed by means of cervical dislocation the terminal 15 cm of ileum removed, and 1.5-2.0 cm lengths prepared and mounted in 10 ml organ baths containing calcium deficient tyrodes of the following composition (mM) NaCl (136.9); KCl (2.68); CaCl2 (0.9); MgCl2 (1.05); NaCO3 (11.9); NaH2 PO4 (0.42); glucose (5.55) and containing methysergide (10^-6 M) maintained at 37° C. and gassed with 95% O2 and 5% CO2. The mechanical activity of the muscle was measured by a HSE 351 isometric transducer connected via a HSE bridge amplifier to a potentiometric pen recorder. Resting tension was 1 g and the tissue left to equilibrate for 1 hour.
First a dose response curve is obtained to acetylcholine on each tissue. Then one tissue is incubated for 20 min with tyrode and three with tyrode plus the putative 5-HT3 antagonist. After this incubation dose response curves to 5-HT are constructed to 5-HT in all 4 tissues (one control 3+test drug). Contact time for 5-HT 30 sec.
The maximum response to acetylcholine for each tissue is measured and the responses to 5-HT calculated as percentage maximum of the acetylcholine (Ach) maximum response in that tissue. The peak of the 5-HT response is measured.
For each tissue the concentration of 5-HT giving 100% of the maximum acetylcholine response (measured at 30 sac) is quoted.
The effect of a drug is quantified as the ratio of the concentration of 5-HT producing a 100% maximal Ach response in the presence and absence of the antagonist (dose ratio). The figure quoted is the concentration of the antagonist giving a dose ratio of 2, (A2).

Where [1] appears, read: guinea pig ileum, methysergide 10^-6 M, 37° C., 20 min incubation with antagonist, 5-HT contact time 30 sec, dose ratio at 100% maximal Ach response, read-out: A2 (concentration of the antagonist giving a dose ratio of 2) (converted).

Where a name gives a salt, the structure may show the parent alone. Read-outs that look alike come from different tables or passages of the source.

For `CN1[C@@H]2CC[C@H]1C[C@@H](NC(=O)Nc1ccccc1-c1nc(C3CC3)no1)C2` [Example 5, N-(2-(3-Cyclopropyl-1,2,4-oxadiazol-5-yl)phenyl)-N^1-(endo-8-methyl-8-azabicyclo[3.2.1]oct-3-yl)urea HCl], under setting [1], the Kb is 0.0435 µM.

For `Cc1noc(-c2ccccc2NC(=O)N[C@H]2C[C@H]3CC[C@@H](C2)N3C)n1` [Example 6, N-(Endo-8-methyl-8-azabicyclo[3.2.1]oct-3-yl) -N^1-(2-(3-methyl-1,2,4-oxadiazol-5-yl)-phenyl)urea, HCl], the Kb under setting [1] is 0.293 µM. Same read-out and setting: the result for `CCCCc1noc(-c2ccccc2NC(=O)N[C@H]2C[C@H]3CC[C@@H](C2)N3C)n1` [Example 7, N-(2-(3-Butyl-1,2,4-oxadiazol-5-yl)phenyl)-N^1-(endo-8-methyl-8-azabicyclo[3.2.1]oct-3-yl)urea, (CO2 H)2] reads 0.013 µM; that for `CN1[C@@H]2CCC[C@H]1C[C@@H](NC(=O)Nc1ccccc1-c1nc(C3CC3)no1)C2` [Example 8, N-(2-(3-Cyclopropyl-1,2,4-oxadiazol-5-yl)-phenyl)-N^1-(endo-9-methyl-9-azabicyclo[3.3.1]non-3-yl)urea, HCl], 0.00341 µM. Take `O=C(Nc1ccccc1-c1nc(C2CC2)no1)NC1CN2CCC1CC2` (stereo not drawn) [Example 10, N-(2-(3-Cyclopropyl-1,2,4-oxadiazol-5-yl)-phenyl)-N^1-(3-quinuclidinyl)urea]: the Kb was 0.283 µM. In the case of `CN1[C@@H]2CCC[C@H]1C[C@@H](NC(=O)Nc1ccccc1-c1nc(-c3ccccc3)no1)C2` [Example 11, N-(Endo-9-methyl-9-azabicyclo[3.3.1]non-3-yl)-N ^1-(2-(3-phenyl-1,2,4-oxadiazol-5-yl)phenyl)urea], the Kb under setting [1] is 0.024 µM.

For `CN1[C@@H]2CC[C@H]1C[C@@H](NC(=O)Nc1ccccc1C=NOCC1CC1)C2` [Example 15, N-(Endo-8-methyl-8-azabicyclo[3.2.1]oct-3-yl)-N^1-(2-(N-cyclo-propylmethoxyiminomethyl)phenyl)urea, HCl], under setting [1], the Kb was 0.00505 µM. As for `CCON=Cc1ccccc1NC(=O)N[C@H]1C[C@H]2CC[C@@H](C1)N2C` [Example 16, N-(Endo-8-methyl-8-azabicyclo[3.2.1]oct-3-yl)-N^1-(2-(N-ethoxyiminomethyl)phenyl)urea, HCl], the Kb under setting [1] was 0.0363 µM. Consider `CON=Cc1ccccc1NC(=O)N[C@H]1C[C@H]2CCC[C@@H](C1)N2C` [Example 18, N-(2-(N-Methoxyiminomethyl)phenyl)-N^1-(endo-9-methyl-9-azabicyclo[3.3.1]non-3-yl)urea], for which, under setting [1], the Kb is 0.0363 µM.
